# Test results: paper PMC5218480 (PLoS ONE, 2017)
# System: MV-4-11 cells
# Assay: Gene expression microarray analysis (Affymetrix PrimeView) and GSEA
# Format: cell-based, human
# Parameters: RFU PODN (11730768_x_at) / Fold change /veh PODN (11730768_x_at) / RFU LINC00158 (11744669_a_at) / Fold change /veh LINC00158 (11744669_a_at) / RFU DUSP10 (11751237_a_at) / Fold change /veh DUSP10 (11751237_a_at) / RFU ID3 (11757404_x_at) / Fold change /veh ID3 (11757404_x_at) / RFU PLEKHG5 (11737974_s_at) / Fold change /veh PLEKHG5 (11737974_s_at) / RFU LRRC4B (11730491_at) / Fold change /veh LRRC4B (11730491_at) / RFU GIMAP4 (11747438_a_at) / Fold change /veh GIMAP4 (11747438_a_at) / RFU KRT8 (11758183_x_at) / Fold change /veh KRT8 (11758183_x_at) / RFU CNN1 (11734310_a_at) / Fold change /veh CNN1 (11734310_a_at) / RFU VPS37D (11726825_at) / Fold change /veh VPS37D (11726825_at) / RFU C10orf10 (11716522_x_at) / Fold change /veh C10orf10 (11716522_x_at) / RFU KIR2DL2 /// KIR2DL4 /// KIR2DL5A /// KIR2DL5B /// KIR2DS1 /// KIR2DS2 /// KIR2DS3 /// KIR2DS4 /// KIR3DL3 /// KIR3DL3 /// KIR3DS1 (11738374_at) / Fold change /veh KIR2DL2 /// KIR2DL4 /// KIR2DL5A /// KIR2DL5B /// KIR2DS1 /// KIR2DS2 /// KIR2DS3 /// KIR2DS4 /// KIR3DL3 /// KIR3DL3 /// KIR3DS1 (11738374_at) / RFU C1QL1 (11718748_at) / Fold change /veh C1QL1 (11718748_at) / RFU TMPRSS4 (11747572_a_at) / Fold change /veh TMPRSS4 (11747572_a_at) / RFU HAMP (11756126_x_at) / Fold change /veh HAMP (11756126_x_at) / RFU RNFT2 (11725882_a_at) / Fold change /veh RNFT2 (11725882_a_at) / RFU NR4A2 (11747474_a_at) / Fold change /veh NR4A2 (11747474_a_at) / RFU ABCC12 (11746883_a_at) / Fold change /veh ABCC12 (11746883_a_at) / RFU TMEM136 (11760407_x_at) / Fold change /veh TMEM136 (11760407_x_at) / RFU CLDN22 /// WWC2 (11732394_at) / Fold change /veh CLDN22 /// WWC2 (11732394_at) / RFU HLA-DPB1 (11760878_x_at) / Fold change /veh HLA-DPB1 (11760878_x_at) / RFU SPINT1 (11716480_a_at) / Fold change /veh SPINT1 (11716480_a_at) / RFU GAP43 (11754022_s_at) / Fold change /veh GAP43 (11754022_s_at) / RFU A4GNT (11735810_at) / Fold change /veh A4GNT (11735810_at) / RFU PRB3 (11715151_x_at) / Fold change /veh PRB3 (11715151_x_at) / RFU TUBB4B (11761932_at) / Fold change /veh TUBB4B (11761932_at) / RFU CAPN14 (11732068_a_at) / Fold change /veh CAPN14 (11732068_a_at) / RFU TMCC2 (11721928_a_at) / Fold change /veh TMCC2 (11721928_a_at) / RFU IRGQ (11745062_a_at) / Fold change /veh IRGQ (11745062_a_at) / RFU FAM174B (11720279_a_at) / Fold change /veh FAM174B (11720279_a_at) / RFU TMPRSS4 (11748680_a_at) / Fold change /veh TMPRSS4 (11748680_a_at) / RFU FAM212B (11763350_a_at) / Fold change /veh FAM212B (11763350_a_at) / RFU PLEKHG5 (11743358_a_at) / Fold change /veh PLEKHG5 (11743358_a_at) / RFU ZSCAN30 (11745921_a_at) / Fold change /veh ZSCAN30 (11745921_a_at) / RFU CMKLR1 (11741424_a_at) / Fold change /veh CMKLR1 (11741424_a_at) / RFU LOC101060620 /// MAPK8IP1 (11723275_at) / Fold change /veh LOC101060620 /// MAPK8IP1 (11723275_at) / RFU SPTSSB (11747773_x_at) / Fold change /veh SPTSSB (11747773_x_at) / RFU PRSS12 (11739890_at) / Fold change /veh PRSS12 (11739890_at) / RFU BIN1 (11741810_x_at) / Fold change /veh BIN1 (11741810_x_at) / RFU WNT11 (11732464_a_at) / Fold change /veh WNT11 (11732464_a_at) / RFU C10orf10 (11716521_a_at) / Fold change /veh C10orf10 (11716521_a_at) / RFU C5orf56 (11738089_at) / Fold change /veh C5orf56 (11738089_at) / RFU CYB561 (11721691_x_at) / Fold change /veh CYB561 (11721691_x_at) / RFU ANKRD19P (11752326_a_at) / Fold change /veh ANKRD19P (11752326_a_at) / RFU OR2T12 /// OR2T33 /// OR2T8 (11738714_s_at) / Fold change /veh OR2T12 /// OR2T33 /// OR2T8 (11738714_s_at) / RFU VCAN (11748164_a_at) / Fold change /veh VCAN (11748164_a_at) / RFU JSRP1 (11732532_at) / Fold change /veh JSRP1 (11732532_at) / RFU KRTAP10-11 (11738290_x_at) / Fold change /veh KRTAP10-11 (11738290_x_at) / RFU MYO3A (11730013_a_at) / Fold change /veh MYO3A (11730013_a_at) / RFU EBF3 (11725865_a_at) / Fold change /veh EBF3 (11725865_a_at) / RFU CAMK2N1 (11719241_x_at) / Fold change /veh CAMK2N1 (11719241_x_at) / RFU C5orf56 (11738088_a_at) / Fold change /veh C5orf56 (11738088_a_at) / RFU OLFML3 (11715873_a_at) / Fold change /veh OLFML3 (11715873_a_at) / RFU LOC100653217 /// NTM (11731650_a_at) / Fold change /veh LOC100653217 /// NTM (11731650_a_at) / RFU MAPK11 (11762145_a_at) / Fold change /veh MAPK11 (11762145_a_at) / RFU FIZ1 (11724087_x_at) / Fold change /veh FIZ1 (11724087_x_at) / RFU OASL (11726364_x_at) / Fold change /veh OASL (11726364_x_at) / RFU SOX15 (11748057_x_at) / Fold change /veh SOX15 (11748057_x_at) / RFU CD79A (11719716_a_at) / Fold change /veh CD79A (11719716_a_at) / RFU HIST1H1D (11736915_at) / Fold change /veh HIST1H1D (11736915_at) / RFU CASKIN2 (11723855_a_at) / Fold change /veh CASKIN2 (11723855_a_at) / RFU LOC730098 (11760151_x_at) / Fold change /veh LOC730098 (11760151_x_at) / RFU OR4N2 (11742367_at) / Fold change /veh OR4N2 (11742367_at) / RFU PRRT2 (11749266_a_at) / Fold change /veh PRRT2 (11749266_a_at) / RFU SNX32 (11753110_a_at) / Fold change /veh SNX32 (11753110_a_at) / RFU CDHR5 (11726645_a_at) / Fold change /veh CDHR5 (11726645_a_at) / RFU RCAN1 (11760418_a_at) / Fold change /veh RCAN1 (11760418_a_at) / RFU FAM167A (11723789_a_at) / Fold change /veh FAM167A (11723789_a_at) / RFU FAM26E (11764081_at) / Fold change /veh FAM26E (11764081_at) / RFU ISYNA1 (11749810_s_at) / Fold change /veh ISYNA1 (11749810_s_at) / RFU ACY1 (11761880_at) / Fold change /veh ACY1 (11761880_at) / RFU 11764098_at / Fold change /veh 11764098_at / RFU SAMD14 (11745864_x_at) / Fold change /veh SAMD14 (11745864_x_at) / RFU NPB (11741838_a_at) / Fold change /veh NPB (11741838_a_at) / RFU TMPRSS6 (11731388_a_at) / Fold change /veh TMPRSS6 (11731388_a_at) / RFU KRTAP10-2 (11738614_at) / Fold change /veh KRTAP10-2 (11738614_at) / RFU ARHGAP8 /// PRR5-ARHGAP8 (11727945_x_at) / Fold change /veh ARHGAP8 /// PRR5-ARHGAP8 (11727945_x_at) / RFU KRTAP5-7 /// NADSYN1 (11734609_at) / Fold change /veh KRTAP5-7 /// NADSYN1 (11734609_at) / RFU RASL12 (11751679_a_at) / Fold change /veh RASL12 (11751679_a_at) / RFU CDKN2B (11736163_a_at) / Fold change /veh CDKN2B (11736163_a_at) / RFU PRF1 (11729649_at) / Fold change /veh PRF1 (11729649_at) / RFU, ZNF638 /// ZNF638-IT1 / Fold change vs veh, ZNF638 /// ZNF638-IT1 / RFU, PANK3 / Fold change vs veh, PANK3 / RFU, SH3YL1 / Fold change vs veh, SH3YL1 / RFU, ZEB2 / Fold change vs veh, ZEB2 / RFU, NRIP1 / Fold change vs veh, NRIP1 / RFU, PTTG1IP / Fold change vs veh, PTTG1IP / RFU, CAPN2 / Fold change vs veh, CAPN2 / RFU, MED14 / Fold change vs veh, MED14 / RFU, SNORA58 / Fold change vs veh, SNORA58 / RFU, C1orf63 / Fold change vs veh, C1orf63 / RFU, LRRFIP1 / Fold change vs veh, LRRFIP1 / RFU, NDUFAF7 / Fold change vs veh, NDUFAF7 / RFU, SLC12A2 / Fold change vs veh, SLC12A2 / RFU, IBTK / Fold change vs veh, IBTK / RFU, ESF1 / Fold change vs veh, ESF1 / Fold change vs veh, TMEM50B / RFU, TAOK1 / Fold change vs veh, TAOK1 / RFU, ACBD3 / Fold change vs veh, ACBD3 / RFU, TMA16 / Fold change vs veh, TMA16 / RFU, RWDD3 / Fold change vs veh, RWDD3 / RFU, BCAT1 / Fold change vs veh, BCAT1 / RFU, EDEM3 / Fold change vs veh, EDEM3 / RFU, TMEM33 / Fold change vs veh, TMEM33 / RFU, WDR75 / Fold change vs veh, WDR75 / RFU, AHCTF1 / Fold change vs veh, AHCTF1 / RFU, TFRC / Fold change vs veh, TFRC / RFU, ZDHHC17 / Fold change vs veh, ZDHHC17 / RFU, NOM1 / Fold change vs veh, NOM1 / RFU, ARL8B / Fold change vs veh, ARL8B / RFU, ZBTB11 / Fold change vs veh, ZBTB11 / RFU, TAMM41 / Fold change vs veh, TAMM41 / RFU, KIAA1704 /// LOC100996395 / Fold change vs veh, KIAA1704 /// LOC100996395 / RFU, ING1 / Fold change vs veh, ING1 / RFU, TRMT61B / Fold change vs veh, TRMT61B / RFU, FUBP3 / Fold change vs veh, FUBP3 / RFU, TP53 / Fold change vs veh, TP53 / RFU, TNKS2 / Fold change vs veh, TNKS2 / RFU, ZFP14 / Fold change vs veh, ZFP14 / RFU, ACTR2 / Fold change vs veh, ACTR2 / RFU, PPP3R1 / Fold change vs veh, PPP3R1 / RFU, PIK3R1 / Fold change vs veh, PIK3R1 / RFU, HNRNPA1 / Fold change vs veh, HNRNPA1 / RFU, RNF170 / Fold change vs veh, RNF170 / RFU, ZNF28 / Fold change vs veh, ZNF28 / RFU, RNGTT / Fold change vs veh, RNGTT / RFU, OGT / Fold change vs veh, OGT / RFU, BRD1 / Fold change vs veh, BRD1 / RFU, MARS / Fold change vs veh, MARS / RFU, ZNF655 / Fold change vs veh, ZNF655 / RFU, FAHD1 / Fold change vs veh, FAHD1 / RFU, BDP1 / Fold change vs veh, BDP1 / RFU, LRRCC1 / Fold change vs veh, LRRCC1 / RFU, ARID1A / Fold change vs veh, ARID1A / RFU, ZNF146 / Fold change vs veh, ZNF146 / RFU, ZNF330 / Fold change vs veh, ZNF330 / RFU, GPN3 / Fold change vs veh, GPN3 / RFU, C9orf123 / Fold change vs veh, C9orf123 / RFU, N4BP2L2 / Fold change vs veh, N4BP2L2 / RFU, ARFIP1 / Fold change vs veh, ARFIP1 / RFU, FAM179B / Fold change vs veh, FAM179B / RFU, BCL10 / Fold change vs veh, BCL10 / RFU, UHRF1BP1L / Fold change vs veh, UHRF1BP1L / RFU, BET1 / Fold change vs veh, BET1 / RFU, CNOT2 / Fold change vs veh, CNOT2 / RFU, ZNF268 / Fold change vs veh, ZNF268 / Fold change vs veh, ZNF507 / RFU, DGCR2 / Fold change vs veh, DGCR2 / RFU, WDSUB1 / Fold change vs veh, WDSUB1 / Fold change vs veh, HSP90B1 /// MIR3652 / RFU, ADSS / Fold change vs veh, ADSS / RFU, GK / Fold change vs veh, GK / RFU, ZNF148 / Fold change vs veh, ZNF148 / RFU, TAF9 / Fold change vs veh, TAF9 / RFU, SLC1A5 / Fold change vs veh, SLC1A5 / RFU, SLMO2 / Fold change vs veh, SLMO2 / RFU, ABCC4 / Fold change vs veh, ABCC4 / RFU, LOC101060439 /// RAP1B / Fold change vs veh, LOC101060439 /// RAP1B / RFU, RFX7 / Fold change vs veh, RFX7 / RFU, GTPBP10 / Fold change vs veh, GTPBP10 / RFU, CNEP1R1 / Fold change vs veh, CNEP1R1 / RFU, BIVM-ERCC5 /// ERCC5 / Fold change vs veh, BIVM-ERCC5 /// ERCC5 / RFU, ILF3 / Fold change vs veh, ILF3 / RFU 11762660_at / Fold change /veh 11762660_at / RFU VCAN (11757783_s_at) / Fold change /veh VCAN (11757783_s_at) / RFU DDX43 (11728927_at) / Fold change /veh DDX43 (11728927_at) / RFU KRT8 (11758188_x_at) / Fold change /veh KRT8 (11758188_x_at) / RFU NKD1 (11759106_at) / Fold change /veh NKD1 (11759106_at) / RFU SRD5A1 (11742802_a_at) / Fold change /veh SRD5A1 (11742802_a_at) / RFU TPSAB1 /// TPSB2 (11721975_s_at) / Fold change /veh TPSAB1 /// TPSB2 (11721975_s_at) / RFU GSTM3 (11746129_a_at) / Fold change /veh GSTM3 (11746129_a_at) / RFU IL23R (11737362_x_at) / Fold change /veh IL23R (11737362_x_at) / RFU TMEM51 (11727254_a_at) / Fold change /veh TMEM51 (11727254_a_at) / RFU PIWIL2 (11732686_x_at) / Fold change /veh PIWIL2 (11732686_x_at) / RFU ORM1 (11744905_x_at) / Fold change /veh ORM1 (11744905_x_at) / RFU CCDC152 (11743942_at) / Fold change /veh CCDC152 (11743942_at) / RFU ECM1 (11717891_a_at) / Fold change /veh ECM1 (11717891_a_at) / RFU IL23R (11748794_a_at) / Fold change /veh IL23R (11748794_a_at) / RFU TNFAIP8L3 (11732012_x_at) / Fold change /veh TNFAIP8L3 (11732012_x_at) / RFU MBOAT4 (11741988_at) / Fold change /veh MBOAT4 (11741988_at) / RFU 11764193_at / Fold change /veh 11764193_at / RFU TMEM53 (11763286_at) / Fold change /veh TMEM53 (11763286_at) / RFU MAGEB2 (11727129_at) / Fold change /veh MAGEB2 (11727129_at) / RFU TMEM200A (11744735_a_at) / Fold change /veh TMEM200A (11744735_a_at) / RFU CCDC152 (11751479_a_at) / Fold change /veh CCDC152 (11751479_a_at) / RFU FAM211A (11726209_a_at) / Fold change /veh FAM211A (11726209_a_at) / RFU RGS16 (11746705_a_at) / Fold change /veh RGS16 (11746705_a_at) / RFU VCAN (11755009_s_at) / Fold change /veh VCAN (11755009_s_at) / RFU RHOB (11743442_s_at) / Fold change /veh RHOB (11743442_s_at) / RFU RGS16 (11720943_a_at) / Fold change /veh RGS16 (11720943_a_at) / RFU RGS16 (11720944_at) / Fold change /veh RGS16 (11720944_at) / RFU, VPS4B / Fold change vs veh, VPS4B / RFU, CREB1 / Fold change vs veh, CREB1 / RFU, DNAJC13 / Fold change vs veh, DNAJC13 / RFU, GNAQ / Fold change vs veh, GNAQ / RFU, CDK5R1 / Fold change vs veh, CDK5R1 / RFU, ZRANB3 / Fold change vs veh, ZRANB3 / RFU, CUL4A / Fold change vs veh, CUL4A / RFU, CCNY / Fold change vs veh, CCNY / RFU, UFL1 / Fold change vs veh, UFL1 / RFU, COG3 / Fold change vs veh, COG3 / RFU, DIAPH2 / Fold change vs veh, DIAPH2 / RFU, SKA2 / Fold change vs veh, SKA2 / RFU, AFF3 / Fold change vs veh, AFF3 / RFU, LMF1 / Fold change vs veh, LMF1 / RFU, IPO11 / Fold change vs veh, IPO11 / RFU, DFFB / Fold change vs veh, DFFB / RFU, FOXP1 / Fold change vs veh, FOXP1 / RFU, CARD8 / Fold change vs veh, CARD8 / RFU, STRN3 / Fold change vs veh, STRN3 / RFU, ADK / Fold change vs veh, ADK / RFU, RASSF2 / Fold change vs veh, RASSF2 / RFU, WIPF1 / Fold change vs veh, WIPF1 / RFU, LARP1B / Fold change vs veh, LARP1B / RFU, RASA1 / Fold change vs veh, RASA1 / RFU, RB1 / Fold change vs veh, RB1 / RFU, PPFIA1 / Fold change vs veh, PPFIA1 / RFU, MAT2A / Fold change vs veh, MAT2A / RFU, CCT5 / Fold change vs veh, CCT5 / RFU, WDR92 / Fold change vs veh, WDR92 / RFU, CUX1 / Fold change vs veh, CUX1 / RFU, TTC7A / Fold change vs veh, TTC7A / RFU, TMEM135 / Fold change vs veh, TMEM135 / RFU, DEPTOR / Fold change vs veh, DEPTOR / RFU, CPM / Fold change vs veh, CPM / RFU, DNAJB6 / Fold change vs veh, DNAJB6 / RFU, CACNA2D3 / Fold change vs veh, CACNA2D3 / RFU, DTX4 / Fold change vs veh, DTX4 / RFU, TFCP2 / Fold change vs veh, TFCP2 / RFU, GMCL1 /// GMCL1P1 / Fold change vs veh, GMCL1 /// GMCL1P1 / RFU, AEBP2 / Fold change vs veh, AEBP2 / RFU, SNHG1 /// SNORD22 /// SNORD25 /// SNORD26 /// SNORD27 /// SNORD28 /// SNORD29 /// SNORD31 / Fold change vs veh, SNHG1 /// SNORD22 /// SNORD25 /// SNORD26 /// SNORD27 /// SNORD28 /// SNORD29 /// SNORD31 / Fold change (Aza/veh), C12orf56 (ProbeSet 11735607_a_at) / Fold change (ACY-1035/veh), C12orf56 (ProbeSet 11735607_a_at) / Fold change (Aza/veh), FGFR1OP (ProbeSet 11751329_s_at) / Fold change (ACY-1035/veh), FGFR1OP (ProbeSet 11751329_s_at) / Fold change (Aza/veh), VPS36 (ProbeSet 11739960_a_at) / Fold change (ACY-1035/veh), VPS36 (ProbeSet 11739960_a_at) / RFU SYPL1 (11715823_x_at) / Fold change /veh SYPL1 (11715823_x_at) / RFU IGFBP7 (11715501_s_at) / Fold change /veh IGFBP7 (11715501_s_at) / RFU REEP3 (11722064_at) / Fold change /veh REEP3 (11722064_at) / RFU IGLL1 (11728026_x_at) / Fold change /veh IGLL1 (11728026_x_at): dose or concentration left out as unconfirmed
# Settings: ProbeSet 11732433_s_at; LIST B
smiles,measurement,value
Nc1ccc(-c2cccs2)cc1NC(=O)c1ccc2c(c1)cc(C1CC1)n2CCN1CCOCC1 [ACY-1035],"Fold change vs veh, GK",1.08
